Columns and labels:
[1] = Hydrolysis test carried out in the dark; assay type: physicochemical
Text: From the hydrolysis test carried out in the dark, MNB and MPB appear to be readily degradable at a pH compatible with environmental conditions.

[2] = system: nauplii of Artemia salina; experiment: Artemia efficacy test
Procedure: This efficacy test was carried out by using nauplii of Artemia salina (Crustacea: Anacostraca).
Cysts reactivation has been carried out 24 hours before the execution of tests. […] Beakers, hermetically closed and aerated with pre-filtered air (0,22 μm), were incubated for 24 hours at 25° C., without photoperiod. For the tests E3 developing stage nauplii were employed (24 hours after cysts reactivation). Nauplii were divided from not-opened cysts by exploiting their positive fototactism: a light beam is placed near the beaker, obtaining a considerable concentration of organisms, that can be taken by using a Pasteur pipette. The following MNB concentrations have been tested: 0-0.05-0.1-0.5-1-5-10 ppm (mg/L). These solutions have been prepared immediately before carrying out the tests using natural filtered (0.22 μm) sea water (NFSW). For tests, multiwell plates (25 wells) have been used, each well has a capacity of 4 ml. In the first column there was the control solution (water without product), and in the following the different concentrations in increasing order. In each well about 20-25 individuals were added, each concentration was repeated in four replicates. Multiwell plates, hermetically closed with parafilm and lid, were incubated at dark for 24-48 hours at 25° C. […] Larvae were considered dead when there was completely no movement for 10 seconds.
Mortality percentage was calculated as the mean of the four replicates for each concentration. Data were analysed by using the Probits method, in order to calculate the lethal concentration for the 50% of the population (LC50).

[3] = system: Staphylococcus aureus ATCC 25923; experiment: Disk diffusion test (Kirby-Bauer); assay type: cell-based; conditions: 100 μg MNB disk, 24 hours in the dark
Procedure: (§1) a) Kirby-Bauer assay was carried out after 24 hours in the dark.
(§2) In the disk diffusion susceptibility test, paper disks containing known amounts of MNB are placed on the surface of an agar plate that has been inoculated confluently with a standardized suspension of an indicator bacterial strain. The antimicrobial agent diffuses into the medium causing a zone of inhibition of growth of the strain around the disk corresponding to the susceptibility of the strain to that agent. Interpretative zone diameters have been established to permit classifying an isolate as belonging to the susceptible, intermediate resistance, or resistant categories of susceptibilities to an antimicrobial agent.
(§3) The disk diffusion method on agar plates was used to assess the biocide efficacy of a single concentration of MNB ([…]) against four aerobic quality control strains (Pseudomonas aeruginosa ATCC10145, Pseudomonas elongata NCIMB 1141, Bacillus subtilis ATCC 10774 and Staphylococcus aureus ATCC 25923).
(§4) Test results are summarised in Table 5 and represent the size of the inhibition halos in millimetres after contact with 100 μg MNB (Disk diffusion method).

[4] = system: Pseudomonas aeruginosa ATCC 10145; experiment: Disk diffusion test (Kirby-Bauer); assay type: cell-based; conditions: 100 μg MNB disk, 24 hours in the dark
Procedure: as §1, §2, §3, §4

[5] = system: Pseudomonas elongata NCIMB 1141; experiment: Disk diffusion test (Kirby-Bauer); assay type: cell-based; conditions: 100 μg MNB disk, 24 hours in the dark
Procedure: as §1, §2, §3, §4

[6] = system: Bacillus subtilis ATCC 10774; experiment: Disk diffusion test (Kirby-Bauer); assay type: cell-based; conditions: 100 μg MNB disk, 24 hours in the dark
Procedure: as §1, §2, §3, §4

Chlorella sp. = experiment: Inhibition of planktonic microalgae duplication; assay type: cell-based; conditions: after 96 hours of treatment
Procedure: This test was carried out by using the microalga Chlorella sp., it is a small (2-10 microns diameter) green single celled microalga with a spherical cell shape. This genus is capable of both autotrophic and heterotrophic growth which may contribute to its ability to rapidly overtake other algae in culture. In laboratory, Chlorella coltures are started by taking from the branchs, inoculates basis, about 10 ml of monospecific colture, and adding 700 ml of […] filtered sea-water, enriched with Walne colture medium and vitamins.
Flasks with algae are kept in a thermostatic room, at 20° C.±0,5; lighting is supplied by 30 watt fluorescent neon tubes and by a 18 watt Osram-fluora lamp, with a photoperiod 16:8 light:dark. Oxygenation is warranted by a continuous air flux in the flask, this is also a way to avoid cells sedimentation. Test was carried out in the thermostatic room, at 20° C., with a 16:8 light:dark cycle in glass test-tube. The tested product has been dissolved in the culture medium, at a double concentration respect to the final wanted. […] Test-tubes were aerated, and kept in thermostatic room for 96 hours; after this period of time an aliquot of each replicate for each concentration was taken, and cellular densities were counted using an haemocytometer.

[7] = Biodegradability OECD 301 A (92/69/EEC C4-A); conditions: 7 days after the beginning of the test
Procedure: In fact, based on data available with respect to the most similar compounds to the menadione derivatives disclosed herein, one would expect a degradability in the range of 0% (percentage calculated based on the initial mass expressed in mg/l) typical of menadione (2-methyl-1,4-naphthalenedione) and 17% (assessed after 28 days) typical of menadione sodium bisulphite (which calculation was performed in accordance with the guidelines OECD301 A attached to directive EEC 92/69/EEC C4-A).
Finally biodegradability was also evaluated according to standard 92/69/EEC C4-A. From the data, both MNB and MPB result to have a remarkably better biodegradability than 2-methyl-1,4-naphthalenedione and particularly than MSB.

[8] = system: Balanus amphitrite nauplii; experiment: Barnacle efficacy test; assay type: in vivo
Procedure: This efficacy tests was carried out by using Balanus amphitrite nauplii (Crustacea: Cirripedia). Specimens of this organism are collected in nature, and then maintained and reared in our laboratories, following a standard methodology. Adult organisms regularly produce larvae at the second naupliar stage, characterized by the typical triangular carapace, with a shield shape. […] Stage II nauplii have been used; immediately after their emission from adults larvae were divided and put in a beaker with […] filtered natural sea-water.

[9] = Photo-degradability under daylight and UV; assay type: physicochemical; conditions: 10 ppm in drinking water (pH 6,5-7,5)
Procedure: Similarly, the same behaviour is confirmed when evaluating the photo-degradability under daylight and UV (the irradiation test is carried out on a solution of 10 ppm in drinking water (pH 6,5-7,5)).

Tigriopus fulvus = experiment: Copepods efficacy test; assay type: in vivo; conditions: Tigriopus fulvus nauplii
Procedure: For that, efficacy test was carried out by using Tigriopus fulvus, it is a shallow-water marine species (Crustacea, Copepoda, Harpactico.da) characterized by […], all variously deep-orange coloured: five nauplius substages and five copepodid substages. Nauplii have a subcircular shape, are characterized by a single red eye, and develop within 6 to 7 days. Copepods are recognisable because of their abdominal segment formation, although the last substage is difficult to distinguish from the adult female at the end of the 7-day development period. Adult sizes range from 0.8 to 1.0 mm for males and from 1.0 to 1.2 mm for females. Sexual dimorphism is detectable only by the pincer shape of antenna 1, whereas ovigerous females can quickly be recognized because of their large egg sacs. T. fulvus is a vector for the transport of Vibrio spp; it is well documented that the persistence of V. cholerae in the aquatic environment is facilitated by its ability to colonize various substrates, including zooplankton surfaces (i.e., copepods).
Copepods, sampled in their natural habitat, have been moved through suitable containers to the laboratory, where they were subjected to a specific treatment. They were first filtered through a […] mesh, then washed with sterile sea-water and transferred to small 3 litres aquaria, with natural filtered (0.22 μm) sea water, T=20+0,5° C. Copepods were fed with microalgae (Chlorella spp, Tetraselmis suecica) and commercial yeast (Saccharomices spp). After the acclimatization period (one month), about 500 females were chosen and separated. The naupliar stage was then used for the efficacy test. […] Nauplii were used 24 hours after their hatching, multiwell plates (25 wells) were used for these tests, about 15 individuals for each well. Each concentration was performed in six replicates, plates were kept at dark, at 20° C.

SMILES: CC1(S(=O)(=O)O)CC(=O)c2ccccc2C1=O.NC(=O)c1cccnc1 (centres unmarked) [MNB, menadione nicotinamide bisulphite]
- ½ LIFE (hydrolysis) ([1]; pH 6, 8, in the dark): 48 h
- ½ LIFE (hydrolysis) ([1]; pH 9, in the dark): <3 h
- LC1 ([2]; 24 hours): 3.170 mg/L
- LC50 ([2]; 24 hours): 7.625 µg/mL
- LC1 ([2]; 48 hours): 0.548 mg/L
- LC50 ([2]; 48 hours): 1.840 µg/mL
- size of the inhibition halos [3]: 20 mm
- size of the inhibition halos [4]: 0 mm
- size of the inhibition halos [5]: 20 mm
- size of the inhibition halos [6]: 0 mm
- LC1 (Chlorella sp.): 0.002 mg/L
- LC50 (Chlorella sp.): 0.055 µg/mL
- degradability relative to that of MSB [7]: eight
- LC50 ([8]; 24 hours): 0.228 µg/mL
- LC50 ([8]; 48 hours): 0.222 µg/mL
- Light exp. Tot Degr. [9]: 48 h
- Light exp. ½ life [9]: 10 h
- LC50 (Tigriopus fulvus; 24 hours): 0.156 µg/mL
- LC50 (Tigriopus fulvus; 48 hours): 0.071 µg/mL
- LC50 (Tigriopus fulvus; 72 hours): 0.039 µg/mL

From patent US20040232089A1, “Biocidal compounds for treating water” (VANETTA S.p.A., priority 2003, published 2004)
